Key:
barley leave discs = experiment: Chlorophyll preservation bioassay in barley leave discs; details: barley leaves at 3 dpt vs control at 0 dpt
Method: (§1) To confirm the greening effect of compounds of formula (I) according to the invention observed in field trials, a simple bioassay was set up using wheat and barley. Discs of 1 cm of diameter were cut within leaves collected from 4 weeks old plants and deep at room temperature in water for 1 hour to allow ethylene produced after wound injury to dissipate. Control samples were produced dipping leave discs for 15 min in a solution of 5% DMSO-10% acetone-0.005% tween80 (bioassay formulation), immediately frozen (control 0 day post treatment-dpt) or deposited on Whatmann filter paper soaked by the bioassay formulation, in Petri dishes, […] Leaves discs treated with test compound were processed in the same way. In this case, leave discs were deep for 15 minutes in test compound solution and left to incubate on filter paper soaked with the corresponding test solution. Compounds of formula (I) according to the invention were tested in EC100 formulation unless otherwise specified; Other SDHI fungicides (Fluxapyroxad, Isopyrazam and Hambra) were tested in their respective field formulations.
(§2) Leave discs were frozen in liquid nitrogen and ground prior to chlorophyll extraction with 1 mL of an acetone-water (80-20 vol/vol) solution and chlorophyll concentration evaluation at 663 nm. Percentages of chlorophyll content in 3 or 4 dpt controls and corresponding treated samples were reported to the chlorophyll content measured in 0 dpt controls.

[1] = system: winter wheat variety Dekan; experiment: Foliar application field trial Laacherhof: yield of winter wheat; assay type: in vivo; details: 50 g a.i./ha, sprayed threefold at BBCH 31, 39 and 69, 100EC formulation with adjuvant; for Grain Yield (dt/ha): untreated control 86.25
Method: (§3) The field trial in winter wheat was conducted in the experimental station “Laacherhof” in Germany in spring/summer 2012.
(§4) Seeds of the winter wheat variety “Dekan” were planted on Oct. 17, 2011. Fertilization, herbicide- and plant growth regulator applications were carried out according to the local agricultural practice. Additionally, a cover spray with “Pronto Plus” was carried out at BBCH-growth stage 51 in order to keep brown rust (Puccinia triticina) out of the field trial (trial under pathogen-free conditions). The trial was conducted with 3 replicates and the replicates 2 and 3 were randomized. The plot size was 8.8 m^2.
(§5) Compounds A5 (N-(5-chloro-2-isopropylbenzyl)-N-cyclopropyl-3-(difluoromethyl)-5-fluoro-1-methyl-1H-pyrazole-4-carboxamide), A7 (N-cyclopropyl-3-(difluoromethyl)-5-fluoro-N-(5-fluoro-2-isopropylbenzyl)-1-methyl-1H-pyrazole-4-carboxamide), A12 (N-cyclopropyl-3-(difluoromethyl)-5-fluoro-N-(2-isopropyl-5-methylbenzyl)-1-methyl-1H-pyrazole-4-carboxamide) and A10 (N-cyclopropyl-3-(difluoromethyl)-5-fluoro-N-(2-fluoro-6-isopropylbenzyl)-1-methyl-1H-pyrazole-4-carboxamide) were sprayed threefold at BBCH-growth stages 31, 39 and 69 with an use rate of 50 g a.i./ha. All compounds were applied as 100EC formulation adding an adjuvant.
The winter wheat was harvested on Aug. 3, 2012.

[2] = system: winter wheat variety Dekan; experiment: Foliar application field trial Laacherhof: greening effect in winter wheat; assay type: in vivo; details: 50 g a.i./ha, sprayed threefold at BBCH 31, 39 and 69; percentage of the color green; untreated control 21.7
Method: as §3, §4, §5
The greening effect of the single treatments was evaluated on Jul. 6, 2012.

wheat leave discs = experiment: Chlorophyll preservation bioassay in wheat leave discs; details: for Chlorophyll content (%): wheat leave discs at 4 dpt vs control at 0 dpt; for colour of leave discs at the end of the experiment: wheat and barley leave discs, 3 or 4 dpt in the dark
Method: as §1, §2

soybean cultivar BRS 245 = experiment: Soybean seed treatment field trial: development and yield; assay type: in vivo; details: for Plant Height (cm)/%: 050 SC, 42 days after planting, untreated control 33 cm = 100%; for Weight Root (g)/% / Weight Dry Plant (g)/%: 49 days after planting; for Weight Root (g)/%: untreated control 10 g = 100%; for Weight Dry Plant (g)/%: untreated control 46 g = 100%; for Grain Yield (dt)/%: untreated control 28 dt = 100%; for Weight of 1000 Grains (g)/%: untreated control 125 g = 100%
Method: Seeds of the Brazilian soybean cultivar BRS 245 were treated with compound A5: […] The product was applied as 050 SC with rates of 25 and 100 g a.i./dt. The field trial was set up in an experimental station close to Paulinia, S. P., in Brazil, in February 2012. […] Fertilization, herbicide- and insecticide applications were carried out according to the local agricultural practice. 42 days after planting plant height, 49 days after planting the dry weight of both entire green plants and the roots were measured. This trial was done under almost disease free conditions (“Asian Soybean Rust” Phakopsora pachyrhizi arrived about month after planting with a very low severity).

[3] = system: winter wheat variety Dekan; experiment: Foliar application field trial Höfchen: green leaves and yield in winter wheat; assay type: in vivo; details: for Greening Effect (%): 100 EC, assessed at EC 85, 38 days after second application, untreated control 0; for Grain Yield (dt/ha): untreated control 85
Method: The field trial was conducted in the experimental station “Höfchen” in Germany in spring 2012. Winter wheat, variety “Dekan”, was planted on October 2011. Fertilization, herbicide- and plant growth regulator applications were carried out according to the local agricultural practice.
The trial was conducted with 4 replicates. Plot size was 12 m^2 and there were four replicates.
Compound A5 was applied as a 100 EC formulation with rates of 37 and 75 g a.i./ha twice in the growing season at BBCH-growth stages EC 33 and 55.
The effect on the green foliage was assessed on July 2012, 38 days after the second application, at growth stage EC 85, (see table 6).
(§6) The trial was harvested on August 2012.

[4] = system: winter wheat variety Akteur; experiment: Foliar application field trial Langfoerden (FA12DSD559XJE1): yield in winter wheat; assay type: in vivo; details: for Grain Yield (dt/ha): 100 EC, disease free, untreated control 62
Method: The field trial FA12DSD559XJE1 was conducted in the experimental station “Langfoerden” in Germany in spring 2012.
Winter wheat, variety “Akteur”, was planted on November 2011. Fertilization, herbicide- and plant growth regulator applications were carried out according to the local agricultural practice.
The trial was conducted with 4 replicates. Plot size was 16 m^2 and there were four replicates.
Compound A5 was applied as a 100 EC formulation with rates of 37 and 75 g a.i./ha twice in the growing season at BBCH-growth stages EC 33 and 61.
In this trial there was no significant disease severity assessed. It can be considered as disease free.
as §6

corn = experiment: Foliar application field trial USA (FA12NARS4CUJX1): green foliage and yield in corn; assay type: in vivo; details: for Greening Effect (%): 100 EC, green foliage of corn at EC 79, untreated control 43; for Grain Yield (dt/ha): untreated control 39.5
Method: The field trial FA12NARS4CUJX1 was conducted in the USA (IA, 50046 Cambridge) in spring 2012.
The crop was planted on April 2012. Fertilization and herbicide applications were carried out according to the local agricultural practice.
The trial was conducted with 4 replicates. Plot size was 80 m^2 and there were four replicates.
Compound A5 was applied as a 100 EC formulation with rates of 20 and 50 g a.i./ha twice in the growing season at BBCH-growth stages EC 15 and 61.
In this trial there was no significant leaf disease severity assessed (Kabatiella zeae pest severity below 5%). It can be considered as almost disease free.
The trial was harvested on September 2012.

[5] = formula (I) compounds in EC100 formulation, other SDHI in field formulations
[6] = 37 g a.i./ha twice (EC 33 and 55)
[7] = 75 g a.i./ha twice (EC 33 and 55)
[8] = 37 g a.i./ha twice (EC 33 and 61)
[9] = 75 g a.i./ha twice (EC 33 and 61)
[10] = 20 g a.i./ha twice (EC 15 and 61)
[11] = 50 g a.i./ha twice (EC 15 and 61)

CC(C)c1cccc(F)c1CN(C(=O)c1c(C(F)F)nn(C)c1F)C1CC1 [Compound A10, N-cyclopropyl-3-(difluoromethyl)-5-fluoro-N-(2-fluoro-6-isopropylbenzyl)-1-methyl-1H-pyrazole-4-carboxamide]
Chlorophyll content (%) (barley leave discs; [5]): 60%
Grain Yield (% of Untreated Control) [1]: 116%
Grain Yield (dt/ha) [1]: 99.9 dt/ha
Greening Effect (%) [2]: 50.0%

Cc1ccc(C(C)C)c(CN(C(=O)c2c(C(F)F)nn(C)c2F)C2CC2)c1 [Compound A12, N-cyclopropyl-3-(difluoromethyl)-5-fluoro-N-(2-isopropyl-5-methylbenzyl)-1-methyl-1H-pyrazole-4-carboxamide]
Chlorophyll content (%) (wheat leave discs; [5]): 88%
Chlorophyll content (%) (barley leave discs; [5]): 72%
Grain Yield (% of Untreated Control) [1]: 110%
Grain Yield (dt/ha) [1]: 94.9 dt/ha
Greening Effect (%) [2]: 53.3%

CC(C)c1ccc(F)cc1CN(C(=O)c1c(C(F)F)nn(C)c1F)C1CC1 [Compound A7, N-cyclopropyl-3-(difluoromethyl)-5-fluoro-N-(5-fluoro-2-isopropylbenzyl)-1-methyl-1H-pyrazole-4-carboxamide]
Chlorophyll content (%) (wheat leave discs; tested in EC50 formulation): 83%
Chlorophyll content (%) (barley leave discs; tested in EC50 formulation): 77%
Grain Yield (% of Untreated Control) [1]: 115%
Grain Yield (dt/ha) [1]: 99.4 dt/ha
Greening Effect (%) [2]: 36.7%

CC(C)c1ccc(Cl)cc1CN(C(=O)c1c(C(F)F)nn(C)c1F)C1CC1 [Compound A5, N-(5-chloro-2-isopropylbenzyl)-N-cyclopropyl-3-(difluoromethyl)-5-fluoro-1-methyl-1H-pyrazole-4-carboxamide]
Chlorophyll content (%) (wheat leave discs; [5]): 78%
Chlorophyll content (%) (barley leave discs; [5]): 55%
Plant Height (cm)/% (soybean cultivar BRS 245; seed treatment 25 g a.i./dt): 105%
Weight Root (g)/% (soybean cultivar BRS 245; seed treatment 25 g a.i./dt): 117%
Weight Dry Plant (g)/% (soybean cultivar BRS 245; seed treatment 25 g a.i./dt): 107%
Grain Yield (dt)/% (soybean cultivar BRS 245; seed treatment 25 g a.i./dt): 112%
Weight of 1000 Grains (g)/% (soybean cultivar BRS 245; seed treatment 25 g a.i./dt): 103%
Plant Height (cm)/% (soybean cultivar BRS 245; seed treatment 100 g a.i./dt): 105%
Weight Root (g)/% (soybean cultivar BRS 245; seed treatment 100 g a.i./dt): 103%
Weight Dry Plant (g)/% (soybean cultivar BRS 245; seed treatment 100 g a.i./dt): 108%
Grain Yield (dt)/% (soybean cultivar BRS 245; seed treatment 100 g a.i./dt): 111%
Weight of 1000 Grains (g)/% (soybean cultivar BRS 245; seed treatment 100 g a.i./dt): 105%
impact on development and yield of soybean (in words) (soybean cultivar BRS 245; seed treatment, almost disease free conditions): clearly stimulates the physiological development of soybean plants and boosts both grain yield and the grain weight
Grain Yield (% of Untreated Control) [1]: 120%
Grain Yield (dt/ha) [1]: 103.1 dt/ha
Greening Effect (%) [2]: 26.7%
Grain Yield (% of Untreated Control) [3, 6]: 128%
Greening Effect (%) [3, 6]: 54%
Grain Yield (dt/ha) [3, 6]: 109 dt/ha
Grain Yield (% of Untreated Control) [3, 7]: 136%
Greening Effect (%) [3, 7]: 86%
Grain Yield (dt/ha) [3, 7]: 115 dt/ha
effect on maintenance of green leaves in winter wheat (in words) ([3]; foliar sprays): clearly has an effect on the maintenance of the green leaves shortly before harvest
Grain Yield (% of Untreated Control) [4, 8]: 117%
Grain Yield (dt/ha) [4, 8]: 72 dt/ha
Grain Yield (% of Untreated Control) [4, 9]: 124%
Grain Yield (dt/ha) [4, 9]: 76 dt/ha
effect on grain yield in winter wheat (in words) ([4]; foliar sprays, practically disease-free): clearly has an effect on grain yield
Grain Yield (% of Untreated Control) (corn; [10]): 123%
Greening Effect (%) (corn; [10]): 59%
Grain Yield (dt/ha) (corn; [10]): 48.5 dt/ha
Grain Yield (% of Untreated Control) (corn; [11]): 131%
Greening Effect (%) (corn; [11]): 63%
Grain Yield (dt/ha) (corn; [11]): 51.8 dt/ha
effect on maintenance of green leaves in corn (in words) (corn; foliar sprays): clearly has an effect on the maintenance of the green leaves shortly before harvest

Cc1ccc(C(C)(C)C)c(CN(C(=O)c2c(C(F)F)nn(C)c2F)C2CC2)c1 [Compound A14, N-(2-tert-butyl-5-methylbenzyl)-N-cyclopropyl-3-(difluoromethyl)-5-fluoro-1-methyl-1H-pyrazole-4-carboxamide]
Chlorophyll content (%) (barley leave discs; [5]): 77%

CC(C)c1ccccc1CN(C(=O)c1c(C(F)F)nn(C)c1F)C1CC1 [Compound A1, N-cyclopropyl-3-(difluoromethyl)-5-fluoro-N-(2-isopropylbenzyl)-1-methyl-1H-pyrazole-4-carboxamide]
Chlorophyll content (%) (wheat leave discs; [5]): 87%

Cn1cc(C(=O)Nc2ccccc2-c2cc(F)c(F)c(F)c2)c(C(F)F)n1 [Fluxapyroxad, reference compound]
colour of leave discs at the end of the experiment (wheat leave discs): discolored
Chlorophyll content (%) (wheat leave discs; [5]): 51%
Chlorophyll content (%) (barley leave discs; [5]): 28%

CC(C)C1C2CCC1c1c(NC(=O)c3cn(C)nc3C(F)F)cccc12 (stereo not drawn) [Isopyrazam, reference compound]
colour of leave discs at the end of the experiment (wheat leave discs): discolored
Chlorophyll content (%) (wheat leave discs; [5]): 49%
Chlorophyll content (%) (barley leave discs; [5]): 32%

Reference: patent US20150259294A1, “METHOD OF PLANT GROWTH PROMOTION USING CARBOXAMIDE DERIVATIVES” (BAYER CROPSCIENCE AG, priority 2012, published 2015)
